Laboratory results from US8067456B2 (AEterna Zentaris GmbH, priority 2004, dated 2011).
Where a name gives a salt, the structure may show the parent alone. Read-outs that look alike come from different tables or passages of the source.

Target: T1, rat LHRH receptor (Rattus norvegicus, UniProt P30969)
T1 construct: expressed in transfected cells; host or cells: LTK cells (mouse fibroblasts, ATCC CCL-1.3)
T1 sequence (P30969 1-327): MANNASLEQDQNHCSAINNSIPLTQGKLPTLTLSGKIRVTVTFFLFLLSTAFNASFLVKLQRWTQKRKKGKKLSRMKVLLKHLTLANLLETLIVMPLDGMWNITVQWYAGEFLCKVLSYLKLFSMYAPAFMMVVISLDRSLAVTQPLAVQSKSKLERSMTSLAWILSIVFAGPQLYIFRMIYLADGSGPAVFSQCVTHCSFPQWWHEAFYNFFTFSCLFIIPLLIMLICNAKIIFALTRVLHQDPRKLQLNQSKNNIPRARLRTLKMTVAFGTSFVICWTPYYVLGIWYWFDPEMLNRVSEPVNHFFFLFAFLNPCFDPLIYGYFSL
Experiment: LHRH receptor-ligand binding assay (transfected LTK cells)
Method: ^125I-Triptorelin [^125I-(D)-Trp6-GnRH] was purchased from Biotrend (Cologne, Germany).
The specific activity was in each case 2.13 Ci/mmol.
LTK cells (mouse fibroblasts: ATCC No. CCL-1.3) which have been transfected with the rat LHRH receptor are cultivated in DMEM medium (Invitrogen Life Technologies, Germany) with penicillin (100 I.U./ml), streptomycin (0.1 mg/ml) and glutamine (0.01 mol/l) and 10% fetal calf serum (FCS; Invitrogen Life Technologies, Germany) on plastic tissue culture plates (Nunc, Germany, 245×245-20 mm).
80% confluent cell culture plates are washed twice with 50 ml of phosphate-buffered saline (PBS) and then detached with 0.01 M EDTA solution. The cells are pelleted by centrifugation at 200·g for 5 min in a laboratory centrifuge (Kendro, Germany). The cell pellet is resuspended in 3 ml of binding medium (DMEM; 10 mM Hepes; 0.5% BSA; 0.1% […]; 1 g/l bacitracin (add fresh, stock 100×); 0.1 g/l SBTI (add fresh, stock 1000×) and the cell count is determined by Trypan blue staining in a Neubauer counting chamber. The cell suspension is adjusted with binding medium to a concentration of 5×10^5 cells/0.05 ml.
Binding studies for competition plots are carried out as duplicates. The test substances are employed as 10 mM DMSO solutions. They are diluted to 4 times the final concentration employed with binding medium. 25 μl of the substance dilution are mixed with 25 μl of tracer solution (^125I-triptorelin or ^125I-cetrorelix). The tracer concentration is adjusted to approx. 50 000 cpm (measured in a Cobra II, γ counter. PE Liefe Science, Germany) in the final reaction volume of 100 μl.
200 μl of silicone/liquid paraffin mixture (84%:16%) are introduced into 650 μl conical tubes (Roth. Germany). 50 μl of the cell suspension are pipetted thereon, followed by 50 μl of the test substance/tracer mixture. The tubes are capped and incubated with vertical rotation in an incubator at 37° C. for 60 min. After incubation, the samples are centrifuged in a centrifuge (Kendro, Germany) at 900 rpm and subsequently shock-frozen in liquid N2. The tip with the cell pellet is cut off and transferred into prepared counting vials (Roth, Germany). The remainder of the conical tube with the remaining supernatant is likewise transferred into a counting vial. The measurement takes place in a γ counter for 1 min/sample.
Evaluation of the samples takes place after calculation of the specific binding compared with untreated cells, after subtraction of the nonspecific binding (excess of unlabeled ligand, 1 μM) by means of GraphPad Prism or alternatively by means of OMMM software.

[1] = LTK cells transfected with rat LHRH receptor, 125I-triptorelin tracer, 37° C., 60 min, read-out: Binding to r-LHRHR EC50

Row | Compound | EC50 [1] [nM] | EC50 [nM]
1 | 2-chlorobenzyl {(S)-1-[(R)-3-((S)-carbamoyl-2-methylbutylcarbamoyl)-6,8-dichloro-2,3,4,9-tetrahydro-1H-carbazol-3-ylcarbamoyl]-2-methylbutyl}carbamate [Compound 6] | 104 | –
2 | CC(C)[C@H](NC(=O)[C@@]1(NC(=O)[C@@H](NC(=O)OCc2ccc(Cl)cc2)C(C)C)CCc2[nH]c3c(Cl)cc(Cl)cc3c2C1)C(N)=O [Compound 1, 4-chlorobenzyl {(S)-1-[(R)-3-((S)-1-carbamoyl-2-methylpropylcarbamoyl)-6,8-dichloro-2,3,4,9-tetrahydro-1H-carbazol-3-ylcarbamoyl]-2-methylpropyl}carbamate] | 261 | –
3 | CCC(C)[C@H](NC(=O)OCc1ccc(Cl)cc1)C(=O)N[C@]1(C(=O)N[C@H](C(N)=O)C(C)C)CCc2[nH]c3c(Cl)cc(Cl)cc3c2C1 (stereo partly drawn) [Compound 2, 4-chlorobenzyl {(S)-1-[(R)-3-((S)-1-carbamoyl-2-methylpropylcarbamoyl)-6,8-dichloro-2,3,4,9-tetrahydro-1H-carbazol-3-ylcarbamoyl]-2-methylbutyl}carbamate] | 205 | –
4 | CCC(C)[C@H](NC(=O)[C@@]1(NC(=O)[C@@H](NC(=O)OCc2ccc(Cl)cc2)C(C)CC)CCc2[nH]c3c(Cl)cc(Cl)cc3c2C1)C(N)=O (stereo partly drawn) [Compound 3, 4-chlorobenzyl {(S)-1-[(R)-3-((S)-carbamoyl-2-methylbutylcarbamoyl)-6,8-dichloro-2,3,4,9-tetrahydro-1H-carbazol-3-ylcarbamoyl]-2-methylbutyl}carbamate] | 47.2 | –
5 | CCC(C)[C@H](NC(=O)[C@@]1(NC(=O)[C@@H](NC(=O)Cc2cccc(F)c2)C(C)CC)CCc2[nH]c3c(Cl)cc(Cl)cc3c2C1)C(N)=O (stereo partly drawn) [Compound 5, (R)-6,8-dichloro-3-{(S)-2-[2-(3-fluorophenyl)acetylamino]-3-methylpentanoylamino}-2,3,4,9-tetrahydro-1H-carbazole-3-carboxylic acid ((S)-1-carbamoyl-2-methylbutyl)amide] | 98.3 | –
6 | CCC(C)[C@H](NC(=O)[C@@]1(NC(=O)[C@H](CCc2ccc(OC(=O)OCc3ccccc3)cc2)NC(=O)OCc2ccccc2)CCc2[nH]c3c(Cl)cc(Cl)cc3c2C1)C(N)=O (stereo partly drawn) [Compound 8, benzyl 4-{(S)-3-benzyloxycarbonylamino-3-[(R)-3-((S)-1-carbamoyl-2-methylbutylcarbamoyl)-6,8-dichloro-2,3,4,9-tetrahydro-1H-carbazol-3-ylcarbamoyl]propyl}phenylcarbonate] | 45.3 | –
7 | CCC(C)[C@H](NC(=O)[C@@]1(NC(=O)[C@H](CCc2ccc(OP(=O)(O)O)cc2)NC(=O)OCc2ccccc2)CCc2[nH]c3c(Cl)cc(Cl)cc3c2C1)C(N)=S (stereo partly drawn) [Compound 12, benzyl[(S)-1-[(R)-6,8-dichloro-3-((S)-2-methyl-1-thiocarbamoylbutylcarbamoyl)-2,3,4,9-tetrahydro-1H-carbazol-3-ylcarbamoyl]-3-(4-phosphonooxyphenyl)propyl]carbamate] | – | 39.2
8 | CCC(C)[C@H](NC(=O)Cc1ccccc1F)C(=O)N[C@]1(C(=O)N[C@H](C(N)=S)C(C)CC)CCc2[nH]c3c(Cl)cc(Cl)cc3c2C1 (stereo partly drawn) [Compound 13, (R)-6,8-dichloro-3-{(S)-2-[2-(2-fluorophenyl)acetylamino]-3-methylpentanoylamino}-2,3,4,9-tetrahydro-1H-carbazole-3-carboxylic acid ((S)-2-methyl-1-thiocarbamoylbutyl)amide] | 2.4 | –
9 | CCC(C)[C@H](NC(=O)[C@@]1(NC(=O)[C@H](CCc2ccc(O)cc2)NC(=O)Cc2ccccc2F)CCc2[nH]c3c(Cl)cc(Cl)cc3c2C1)C(N)=S (stereo partly drawn) [Compound 14, (R)-6,8-dichloro-3-[(S)-2-[2-(2-fluorophenyl)acetylamino]-4-(4-hydroxyphenyl)butyrylamino]-2,3,4,9-tetrahydro-1H-carbazole-3-carboxylic acid ((S)-2-methyl-1-thiocarbamoyl-butyl)amide] | 2.05 | –
10 | CCC(C)[C@H](NC(=O)CCc1ccc(F)cc1)C(=O)N[C@]1(C(=O)N[C@H](C(N)=O)C(C)C)CCc2[nH]c3c(Cl)cc(Cl)cc3c2C1 (stereo partly drawn) [Compound 16, (R)-6,8-dichloro-3-((S)-2-[3-(4-fluorophenyl)propionylamino]-3-methylpentanoylamino)-2,3,4,9-tetrahydro-1H-carbazole-3-carboxylic acid ((S)-1-carbamoyl-2-methylpropyl)amide] | 628 | –
11 | CC(C)[C@H](NC(=O)[C@@]1(NC(=O)[C@H](CCCCN)NC(=O)CCc2ccc(F)cc2)CCc2[nH]c3c(Cl)cc(Cl)cc3c2C1)C(N)=O [Compound 17, (S)-5-[(R)-3-((S)-1-carbamoyl-2-methylpropylcarbamoyl)-6,8-dichloro-2,3,4,9-tetrahydro-1H-carbazol-3-ylcarbamoyl]-5-[3-(4-fluorophenyl)propionylamino]pentylammonium trifluoroacetate] | 525 | –
12 | CCC(C)[C@H](NC(=O)[C@@]1(NC(=O)[C@H](CCc2ccc(O)cc2)NC(=O)CCc2ccccc2F)CCc2[nH]c3c(Cl)cc(Cl)cc3c2C1)C(N)=O (stereo partly drawn) [Compound 22] | 24.6 | –
13 | CCC(C)[C@H](NC(=O)[C@@]1(NC(=O)[C@@H](NC(=O)CCc2ccccc2F)C(C)CC)CCc2[nH]c3c(Cl)cc(Cl)cc3c2C1)C(N)=O (stereo partly drawn) [Compound 23, (R)-6,8-dichloro-3-{(S)-2-[3-(2-fluorophenyl)propionylamino]-3-methylpentanoylamino}-2,3,4,9-tetrahydro-1H-carbazole-3-carboxylic acid ((S)-1-carbamoyl-2-methylbutyl)amide] | 72.9 | –
14 | CCC(C)[C@H](NC(=O)[C@@]1(NC(=O)[C@H](CCc2ccc(OCCOCCOCCOCCOC)cc2)NC(=O)OCc2ccccc2)CCc2[nH]c3c(Cl)cc(Cl)cc3c2C1)C(N)=S (stereo partly drawn) [Compound 24, benzyl {(S)-1-[(R)-6,8-dichloro-3-((S)-2-methyl-1-thiocarbamoylbutylcarbamoyl)-2,3,4,9-tetrahydro-1H-carbazol-3-ylcarbamoyl]-3-[4-(2-{2-[2-(2-methoxyethoxy)ethoxy]-ethoxy}ethoxy)phenyl]propyl}carbamate] | 13.5 | –
15 | CCC(C)[C@H](NC(=O)OCc1ccccc1)C(=O)N[C@]1(C(=O)N[C@H](C(N)=S)C(C)CC)CCc2[nH]c3c(Cl)cc(F)cc3c2C1 (stereo partly drawn) [Compound 25, benzyl {(S)-1-[(R)-8-chloro-6-fluoro-3-((S)-2-methyl-1-thiocarbamoylbutylcarbamoyl)-2,3,4,9-tetrahydro-1H-carbazol-3-ylcarbamoyl]-2-methylbutyl}carbamate] | 4.2 | –
